Measurements published in PubChem BioAssay (NCI).
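All cell lines were grown in 96-well plates and treated with compound for 48 hours. Here, GI50 denotes the concentration required for 50% inhibition of growth. TGI: total growth inhibition.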

Experiments:
Assay in all cases: NCI tumour cell line growth inhibition, 48 h
IGROV1 ovarian = tested on: IGROV1 ovarian
CCRF-CEM leukemia = tested on: CCRF-CEM leukemia
SNB-75 CNS = tested on: SNB-75 CNS
LOX IMVI melanoma = tested on: LOX IMVI melanoma
M14 melanoma = tested on: M14 melanoma
MALME-3M melanoma = tested on: MALME-3M melanoma
SF-539 CNS = tested on: SF-539 CNS
786-0 renal = tested on: 786-0 renal
NCI/ADR-RES ovarian = tested on: NCI/ADR-RES ovarian
BT-549 breast = tested on: BT-549 breast

O=C1[C@@H]2C(c3ccccc3[N+](=O)[O-])=NO[C@@H]2C(=O)N1c1ccc(Cc2ccc(N3C(=O)[C@H]4C(c5ccccc5[N+](=O)[O-])=NO[C@H]4C3=O)cc2)cc1
TGI (IGROV1 ovarian): > 100 µM | TGI (CCRF-CEM leukemia): > 100 µM | TGI (SNB-75 CNS): > 100 µM | TGI (LOX IMVI melanoma): > 100 µM | TGI (M14 melanoma): > 100 µM | TGI (MALME-3M melanoma): > 100 µM | TGI (SF-539 CNS): > 100 µM | TGI (786-0 renal): > 100 µM

COc1ccc2nc3ccccc3c(NCCCCN(CCCl)CCCl)c2c1
TGI (IGROV1 ovarian): 17.7 µM | TGI (SNB-75 CNS): 2.04 µM | TGI (MALME-3M melanoma): 0.725 µM | TGI (NCI/ADR-RES ovarian): 5.4 µM | TGI (SF-539 CNS): 1.26 µM | TGI (786-0 renal): 1.64 µM

CC(=O)CC(=O)Nc1ccccc1C(F)(F)F
TGI (IGROV1 ovarian): > 100 µM | TGI (CCRF-CEM leukemia): > 100 µM | TGI (SNB-75 CNS): > 100 µM | TGI (LOX IMVI melanoma): > 100 µM | TGI (M14 melanoma): > 100 µM | TGI (MALME-3M melanoma): > 100 µM | TGI (SF-539 CNS): > 100 µM | TGI (786-0 renal): > 100 µM

CN(C)N=Nc1ccc(S(N)(=O)=O)cc1
TGI (IGROV1 ovarian): > 100 µM | TGI (CCRF-CEM leukemia): > 100 µM | TGI (SNB-75 CNS): > 100 µM | TGI (LOX IMVI melanoma): > 100 µM | TGI (M14 melanoma): > 100 µM | TGI (MALME-3M melanoma): > 100 µM | TGI (SF-539 CNS): > 100 µM | TGI (786-0 renal): > 100 µM

COc1ccc(C(=O)C(C(=O)C(=O)NCCCNC(=O)C(=O)C(C(=O)c2ccc(OC)cc2)c2ccc(OC)cc2)c2ccc(OC)cc2)cc1 (configuration not stated)
TGI (IGROV1 ovarian): > 100 µM | TGI (CCRF-CEM leukemia): > 100 µM | TGI (SNB-75 CNS): > 100 µM | TGI (LOX IMVI melanoma): > 100 µM | TGI (M14 melanoma): > 100 µM | TGI (MALME-3M melanoma): > 100 µM | TGI (SF-539 CNS): > 100 µM | TGI (786-0 renal): > 100 µM

O=C(N/C(=C\c1ccc(/C=C(\NC(=O)c2ccccc2)c2nc3c(O)nc(S)nc3[nH]2)cc1)c1nc2c(O)nc(S)nc2[nH]1)c1ccccc1
TGI (IGROV1 ovarian): > 100 µM | TGI (CCRF-CEM leukemia): > 100 µM | TGI (SNB-75 CNS): 84.7 µM | TGI (LOX IMVI melanoma): > 100 µM | TGI (M14 melanoma): > 100 µM | TGI (MALME-3M melanoma): > 100 µM | TGI (SF-539 CNS): > 100 µM | TGI (786-0 renal): > 100 µM

CSc1ccc(C(=O)/C=C/c2ccc(Cl)cc2Cl)cc1
GI50 (IGROV1 ovarian): 15.6 µM | TGI (IGROV1 ovarian): 31.9 µM | GI50 (BT-549 breast): 15.7 µM | TGI (BT-549 breast): 33.1 µM | GI50 (LOX IMVI melanoma): 20 µM | TGI (LOX IMVI melanoma): 37 µM | GI50 (M14 melanoma): 21.6 µM | TGI (M14 melanoma): 59.6 µM | GI50 (MALME-3M melanoma): 29.1 µM | TGI (MALME-3M melanoma): > 100 µM | GI50 (NCI/ADR-RES ovarian): 30 µM | TGI (NCI/ADR-RES ovarian): 94.7 µM | GI50 (SF-539 CNS): 22 µM | TGI (SF-539 CNS): 46.9 µM | GI50 (786-0 renal): 16.9 µM | TGI (786-0 renal): 36.2 µM

CCN(CC)C(=S)SS(C)(=O)=O
TGI (IGROV1 ovarian): > 100 µM | TGI (SNB-75 CNS): > 100 µM | TGI (LOX IMVI melanoma): 26.5 µM | TGI (M14 melanoma): 32.1 µM | TGI (MALME-3M melanoma): 58.4 µM | TGI (SF-539 CNS): 43.7 µM | TGI (786-0 renal): 33.3 µM

Clc1ccc(-c2nc(NCc3ccco3)c3ccccc3n2)c(Cl)c1
GI50 (IGROV1 ovarian): 22.2 µM | TGI (IGROV1 ovarian): > 100 µM | GI50 (CCRF-CEM leukemia): 10.5 µM | TGI (CCRF-CEM leukemia): > 100 µM | GI50 (LOX IMVI melanoma): 8.98 µM | TGI (LOX IMVI melanoma): 26.8 µM | GI50 (M14 melanoma): 17.4 µM | TGI (M14 melanoma): 36.1 µM | GI50 (MALME-3M melanoma): 12.9 µM | TGI (MALME-3M melanoma): 32.4 µM | GI50 (NCI/ADR-RES ovarian): 26.3 µM | TGI (NCI/ADR-RES ovarian): > 100 µM | GI50 (786-0 renal): 20 µM | TGI (786-0 renal): 56.1 µM

CCC(c1ccccc1)c1cc(C(C)(C)C)cc(C(C)(C)C)c1O (configuration not stated)
TGI (IGROV1 ovarian): 30.7 µM | TGI (BT-549 breast): 33.4 µM | TGI (SNB-75 CNS): 27.2 µM | TGI (LOX IMVI melanoma): 31.9 µM | TGI (M14 melanoma): 33.9 µM | TGI (MALME-3M melanoma): 26.8 µM | TGI (NCI/ADR-RES ovarian): 28.7 µM | TGI (SF-539 CNS): 34.2 µM | TGI (786-0 renal): 29 µM

CC1=C2C=CC(=O)C[C@@]2(C)CCC1
TGI (IGROV1 ovarian): > 100 µM | TGI (CCRF-CEM leukemia): > 100 µM | TGI (SNB-75 CNS): > 100 µM | TGI (LOX IMVI melanoma): > 100 µM | TGI (M14 melanoma): > 100 µM | TGI (MALME-3M melanoma): > 100 µM | TGI (SF-539 CNS): > 100 µM | TGI (786-0 renal): > 100 µM

CC1=C(C(=O)Nc2ccc(Cl)c(Cl)c2)C(c2cccc(Cl)c2)NC(=S)N1 (configuration not stated)
GI50 (IGROV1 ovarian): 8.83 µM | TGI (IGROV1 ovarian): 35 µM | GI50 (BT-549 breast): 16.4 µM | TGI (BT-549 breast): 38.6 µM | GI50 (CCRF-CEM leukemia): 30.5 µM | TGI (CCRF-CEM leukemia): > 50 µM | GI50 (SNB-75 CNS): 30.4 µM | TGI (SNB-75 CNS): > 50 µM | GI50 (LOX IMVI melanoma): 12.8 µM | TGI (LOX IMVI melanoma): > 50 µM | GI50 (M14 melanoma): 9.75 µM | TGI (M14 melanoma): 20.2 µM | GI50 (MALME-3M melanoma): 10.9 µM | TGI (MALME-3M melanoma): 29.8 µM | GI50 (786-0 renal): 8.79 µM | TGI (786-0 renal): 18.3 µM

O=C1C=CC(=O)c2c1nc(CBr)[nH]c2=O
TGI (IGROV1 ovarian): > 100 µM | TGI (SNB-75 CNS): > 100 µM | TGI (LOX IMVI melanoma): > 100 µM | TGI (M14 melanoma): > 100 µM | TGI (MALME-3M melanoma): > 100 µM | TGI (NCI/ADR-RES ovarian): > 100 µM | TGI (SF-539 CNS): > 100 µM | TGI (786-0 renal): > 100 µM

COc1ccc2c(c1)[n+]([O-])c(-c1ccccc1Cl)c(N)[n+]2[O-]
TGI (IGROV1 ovarian): > 100 µM | TGI (SNB-75 CNS): > 100 µM | TGI (M14 melanoma): > 100 µM | TGI (MALME-3M melanoma): > 100 µM | TGI (SF-539 CNS): > 100 µM | TGI (786-0 renal): > 100 µM

CCN(CC)c1ccc(C2N3CCCCC3[C@@H]3c4[nH]c5ccccc5c4CCN23)cc1 (some centres not stated)
TGI (IGROV1 ovarian): > 100 µM | TGI (CCRF-CEM leukemia): 63.9 µM | TGI (SNB-75 CNS): 29.1 µM | TGI (M14 melanoma): 64.8 µM | TGI (MALME-3M melanoma): 47.4 µM | TGI (SF-539 CNS): 41.6 µM | TGI (786-0 renal): > 100 µM

CC1(C)C(=O)/C=C\C(=O)C(C)(C)C(=O)/C=C\C(=O)C(C)(C)C2=CC=C(O2)C(C)(C)C(=O)/C=C\C1=O
TGI (IGROV1 ovarian): 24.9 µM | TGI (BT-549 breast): 24.2 µM | TGI (SNB-75 CNS): 20.2 µM | TGI (LOX IMVI melanoma): 13 µM | TGI (M14 melanoma): 5.63 µM | TGI (MALME-3M melanoma): 4.11 µM | TGI (SF-539 CNS): 17.7 µM | TGI (786-0 renal): 12.7 µM

COc1cc(O)c(C(=O)/C=C/c2ccc(OC)c(OCc3ccccc3)c2)c(OC)c1
TGI (IGROV1 ovarian): > 100 µM | TGI (CCRF-CEM leukemia): > 100 µM | TGI (SNB-75 CNS): > 100 µM | TGI (LOX IMVI melanoma): > 100 µM | TGI (M14 melanoma): > 100 µM | TGI (SF-539 CNS): > 100 µM | TGI (786-0 renal): > 100 µM

Cc1c(-c2ccccn2)ccc2ccccc12
TGI (CCRF-CEM leukemia): > 100 µM | TGI (SNB-75 CNS): > 100 µM | TGI (LOX IMVI melanoma): > 100 µM | TGI (M14 melanoma): > 100 µM | TGI (MALME-3M melanoma): > 100 µM | TGI (NCI/ADR-RES ovarian): > 100 µM | TGI (SF-539 CNS): > 100 µM | TGI (786-0 renal): > 100 µM

CC(=O)[CH-]C(=O)c1ccccc1.CC(=O)[CH-]C(=O)c1ccccc1.CC(=O)[CH-]C(=O)c1ccccc1.[Ga+3]
GI50 (IGROV1 ovarian): 18.6 µM | TGI (IGROV1 ovarian): 46.4 µM | GI50 (CCRF-CEM leukemia): 4.39 µM | TGI (CCRF-CEM leukemia): 35.7 µM | GI50 (SNB-75 CNS): 20.3 µM | TGI (SNB-75 CNS): 69.3 µM | GI50 (LOX IMVI melanoma): 16.3 µM | TGI (LOX IMVI melanoma): 31.7 µM | GI50 (M14 melanoma): 15.5 µM | TGI (M14 melanoma): 30.1 µM | GI50 (MALME-3M melanoma): 2.61 µM | TGI (MALME-3M melanoma): 19.5 µM | GI50 (SF-539 CNS): 16.5 µM | TGI (SF-539 CNS): 32.3 µM | GI50 (786-0 renal): 18.2 µM | TGI (786-0 renal): 37.1 µM

CCCCCCCCCCCCCS(=O)(=O)NCC(N)=O
TGI (IGROV1 ovarian): > 100 µM | TGI (CCRF-CEM leukemia): > 100 µM | TGI (SNB-75 CNS): 74.7 µM | TGI (LOX IMVI melanoma): > 100 µM | TGI (M14 melanoma): > 100 µM | TGI (MALME-3M melanoma): > 100 µM | TGI (SF-539 CNS): > 100 µM | TGI (786-0 renal): > 100 µM

CCOC(=O)C1C(=O)CC(=O)C2CCCCC21 (configuration not stated)
TGI (IGROV1 ovarian): > 100 µM | TGI (CCRF-CEM leukemia): > 100 µM | TGI (SNB-75 CNS): > 100 µM | TGI (LOX IMVI melanoma): > 100 µM | TGI (M14 melanoma): > 100 µM | TGI (MALME-3M melanoma): > 100 µM | TGI (SF-539 CNS): > 100 µM | TGI (786-0 renal): > 100 µM
